Experimental data taken from patent publication US10829523B2, “Anti-tumor peptides and use thereof” (TOAGOSEI CO., LTD., priority 2017, dated 2020).
Peptide text beside a SMILES is read from it.

What was measured:
Settings in all cases: 5 h incubation, n=3 average
[1] = tested on: pancreatic cancer cell line (MIA PaCa-2); assay: Anti-tumor activity test, cell survival rate (WST-8); assay type: cell-based, human
Description: (§1) For any one of each sample peptide synthesized in the above Test Example 1, an anti-tumor activity was evaluated by having various kinds of cultured tumor cells as a subject.
(§2) Specifically, as a tumor cell for test, cultured mammary cancer cell line (MCF-7), cultured mammary cancer cell line (MDA-MB-231), cultured pancreatic cancer cell line (MIA PaCa-2), cultured prostate cancer cell line (PC-3), and cultured prostate cancer cell line (DU-145), which are currently available on the market, were used. Furthermore, as a subject for comparison, commercially available cultured cell line of normal human mammary epithelial cells was used. Details of the test are described below.
(§3) Namely, those cell lines were cultured in advance in DMEM medium (that is, Dulbecco's MEM medium (DMEM medium: product of Gibco) containing 10% fetal bovine serum (FBS: product of Gibco), 2 mM L-glutamine, 50 unit/mL penicillin, and 50 μg/mL of streptomycin), and adjusted such that the number of cells per well of a 96-hole (well) plate is about 1×10^4. The medium amount was 100 μL per well.
(§4) Subsequently, the 96-hole (well) plate was kept in a CO2 incubator and pre-incubation was carried out for about 1 day (22 hours to 23 hours) at conditions of 37° C., 5% CO2.
(§5) After that, a test medium containing the peptide at each concentration was prepared such that the peptide concentration in any sample to be an evaluation subject is any one of 3.13 μM, 6.25 μM, 12.5 μM, 25 μM, 50 μM, and 100 μM. Then, the test medium was supplied, in an amount of 90 μL per well, to a well in which the cells as an evaluation subject have been cultured (that is, well after the above pre-incubation). In addition, the 96-hole (well) plate was returned to the CO2 incubator and incubated for 5 hours at conditions of 37° C., 5% CO2.
(§6) Furthermore, number (n) of the test wells for the test group added with each peptide at each peptide concentration was all set at 3. Thus, the result values shown in the following table correspond to an average value of the results which have been obtained from each of test well number of 3. Cell survival rate (%) was determined as described below.
(§7) Upon completion of the incubation for 5 hours described above, the medium in each well was replaced with 100 μL of fresh medium not containing the peptide. Furthermore, “Cell Counting Kit-8” (product of Dojindo Laboratories) containing as a chromogenic reagent “Aqueous tetrazolium salt (WST-8)”, which is a reagent for measuring cell proliferation, was added in an amount of 10 μL to each well. After that, the 96-hole (well) plate was returned to the CO2 incubator and incubated for 1.5 hours at conditions of 37° C. 5% CO2.
(§8) Upon completion of the incubation, the cell culture solution added with the above reagent was recovered, and simultaneously, according to colorimetry by which absorbance at wavelength of 450 nm based on reduction of tetrazolium salt (value calibrated with absorbance at wavelength of 650 nm: A450-A650), the cell survival rate (%) was evaluated.

[2] = tested on: mammary cancer cell line (MCF-7); assay: as above; assay type: cell-based, human
Description: as §1, §2, §3, §4, §5, §6, §7, §8

[3] = tested on: mammary cancer cell line (MDA-MB-231); assay: as above; assay type: cell-based, human
Description: as §1, §2, §3, §4, §5, §6, §7, §8

[4] = tested on: prostate cancer cell line (DU-145); assay: as above; assay type: cell-based, human
Description: as §1, §2, §3, §4, §5, §6, §7, §8

[5] = tested on: prostate cancer cell line (PC-3); assay: as above; assay type: cell-based, human
Description: as §1, §2, §3, §4, §5, §6, §7, §8

[6] = tested on: normal human mammary epithelial cells; assay: Cell survival rate test (WST-8, Cell Counting Kit-8) on normal cells for comparison; assay type: cell-based
Description: as §1, §2, §3, §4, §5, §6, §7, §8

Row | Compound | Cell survival rate (%) ([1]; peptide 12.5 μM) | Cell survival rate (%) ([1]; peptide 25 μM) | Cell survival rate (%) ([1]; peptide 50 μM) | Cell survival rate (%) ([1]; peptide 100 μM) | Cell survival rate (%) ([2]; peptide 12.5 μM) | Cell survival rate (%) ([2]; peptide 25 μM) | Cell survival rate (%) ([2]; peptide 50 μM) | Cell survival rate (%) ([2]; peptide 100 μM) | Cell survival rate (%) ([3]; peptide 12.5 μM) | Cell survival rate (%) ([3]; peptide 25 μM) | Cell survival rate (%) ([3]; peptide 50 μM) | Cell survival rate (%) ([3]; peptide 100 μM) | Cell survival rate (%) ([4]; peptide 12.5 μM) | Cell survival rate (%) ([4]; peptide 25 μM) | Cell survival rate (%) ([4]; peptide 50 μM) | Cell survival rate (%) ([4]; peptide 100 μM) | Cell survival rate (%) ([5]; peptide 12.5 μM) | Cell survival rate (%) ([5]; peptide 25 μM) | Cell survival rate (%) ([5]; peptide 50 μM) | Cell survival rate (%) ([3]; peptide 3.13 μM) | further results
1 | CC[C@H](C)[C@H](NC(=O)[C@H](CO)NC(=O)[C@@H](NC(=O)[C@H](CC(C)C)NC(=O)[C@H](CC(C)C)NC(=O)[C@H](CC(N)=O)NC(=O)[C@H](Cc1c[nH]c2ccccc12)NC(=O)[C@H](CCC(N)=O)NC(=O)[C@H](CC(C)C)NC(=O)[C@@H]1CCCN1C(=O)[C@@H](N)Cc1ccc(O)cc1)[C@@H](C)CC)C(=O)N[C@@H](CC(C)C)C(=O)N[C@@H](C)C(=O)N[C@@H](CO)C(=O)N[C@@H](CO)C(=O)N[C@H](C(=O)NCC(=O)N[C@@H](CO)C(=O)N[C@@H](Cc1ccc(O)cc1)C(=O)N[C@@H](C)C(=O)N[C@H](C(=O)N[C@@H](CCCCN)C(=O)N[C@@H](CCCCN)C(=O)N[C@@H](CCCNC(=N)N)C(=O)N[C@H](C(=O)N[C@@H](CC(C)C)C(=O)N[C@@H](CCCNC(=N)N)C(=O)N[C@@H](CCCCN)C(=O)N[C@@H](CC(N)=O)C(=O)N[C@@H](CC(=O)O)C(=O)N[C@@H](CCCNC(=N)N)C(=O)N[C@@H](CCCCN)C(=O)N[C@@H](CCCCN)C(=O)N[C@@H](CCCNC(=N)N)C(N)=O)[C@@H](C)O)C(C)C)C(C)C [Sample 3] (H-YPLQWNLLISILASSVGSYAVKKRTLRKNDRKKR-NH2; N-terminus assumed) | 101.4% | 93.8% | 88.5% | 45.6% | 79.3% | 71.8% | 50% | 32.8% | 77.9% | 65.7% | 54.5% | 45% | 78.6% | 73.7% | 49.3% | 37.5% | 64.6% | 66.5% | 62.5% |  | Cell survival rate (%) ([5]; peptide 100 μM): 47%; Cell survival rate (%) ([6]; peptide 12.5 μM): 83.6%; Cell survival rate (%) ([6]; peptide 25 μM): 71.6%; Cell survival rate (%) ([6]; peptide 50 μM): 81.5%; Cell survival rate (%) ([6]; peptide 100 μM): 74.8%
2 | CC[C@H](C)[C@H](NC(=O)[C@H](CO)NC(=O)[C@@H](NC(=O)[C@H](Cc1ccccc1)NC(=O)[C@H](CC(C)C)NC(=O)[C@H](CC(N)=O)NC(=O)[C@H](Cc1c[nH]c2ccccc12)NC(=O)[C@H](CCC(N)=O)NC(=O)[C@@H](N)CC(C)C)C(C)C)C(=O)N[C@H](C(=O)N[C@@H](CO)C(=O)N[C@@H](CO)C(=O)N[C@@H](CO)C(=O)N[C@H](C(=O)N[C@@H](Cc1ccccc1)C(=O)N[C@@H](CO)C(=O)N[C@@H](Cc1ccc(O)cc1)C(=O)N[C@@H](CO)C(=O)N[C@H](C(=O)N[C@@H](Cc1c[nH]c2ccccc12)C(=O)N[C@@H](CCCNC(=N)N)C(=O)N[C@@H](CCCNC(=N)N)C(=O)N[C@@H](CCC(N)=O)C(=O)N[C@@H](C)C(=O)N[C@@H](CCCNC(=N)N)C(=O)N[C@@H](Cc1ccccc1)C(=O)N[C@@H](CCCCN)C(N)=O)C(C)C)C(C)C)C(C)C [Sample 9] (H-LQWNLFVSIVSSSVFSYSVWRRQARFK-NH2; N-terminus assumed) |  |  |  |  |  |  |  |  |  |  | 73% |  |  |  |  |  |  |  |  | 99% | 
3 | CC[C@H](C)[C@H](NC(=O)CNC(=O)[C@@H](NC(=O)[C@@H](NC(=O)CNC(=O)[C@H](CC(C)C)NC(=O)[C@@H](NC(=O)[C@H](Cc1ccccc1)NC(=O)[C@H](CO)NC(=O)[C@H](C)NC(=O)[C@@H](NC(=O)CNC(=O)[C@H](CCCCN)NC(=O)[C@H](CCSC)NC(=O)[C@H](Cc1ccccc1)NC(=O)[C@H](C)NC(=O)[C@@H](N)Cc1ccc(O)cc1)[C@@H](C)O)[C@@H](C)CC)[C@@H](C)O)C(C)C)C(=O)N[C@@H](Cc1ccccc1)C(=O)N[C@@H](Cc1ccccc1)C(=O)NCC(=O)N[C@@H](Cc1c[nH]c2ccccc12)C(=O)N[C@@H](CCCNC(=N)N)C(=O)N[C@@H](CCCNC(=N)N)C(=O)N[C@@H](CCC(N)=O)C(=O)N[C@@H](C)C(=O)N[C@@H](CCCNC(=N)N)C(=O)N[C@@H](Cc1ccccc1)C(=O)N[C@@H](CCCCN)C(N)=O [Sample 8] (H-YAFMKGTASFILGTVGIFFGWRRQARFK-NH2; N-terminus assumed) |  |  |  |  |  |  |  |  |  |  | 76% |  |  |  |  |  |  |  |  | 99% | 
4 | CC[C@H](C)[C@H](NC(=O)CNC(=O)[C@H](CC(C)C)NC(=O)[C@H](CC(C)C)NC(=O)[C@H](Cc1ccccc1)NC(=O)[C@@H](NC(=O)CNC(=O)[C@@H](NC(=O)CNC(=O)[C@H](CCCCN)NC(=O)[C@@H](N)CCSC)[C@@H](C)O)[C@@H](C)O)C(=O)N[C@@H](C)C(=O)NCC(=O)N[C@@H](CC(C)C)C(=O)N[C@@H](Cc1ccccc1)C(=O)N[C@H](C(=O)N[C@@H](CC(C)C)C(=O)N[C@@H](CCC(N)=O)C(=O)N[C@@H](CCCCN)C(=O)N[C@H](C(=O)N[C@H](C(=O)N[C@@H](CCC(N)=O)C(=O)N[C@@H](CCCNC(=N)N)C(=O)N[C@@H](CCCNC(=N)N)C(=O)N[C@@H](CCCNC(=N)N)C(=O)N[C@@H](CCCNC(=N)N)C(=O)N[C@@H](CCCNC(=N)N)C(=O)N[C@@H](CCCNC(=N)N)C(=O)N[C@@H](CCCNC(=N)N)C(=O)N[C@@H](CCCNC(=N)N)C(=O)N[C@@H](CCCNC(=N)N)C(N)=O)[C@@H](C)CC)C(C)C)[C@@H](C)O [Sample 2] (H-MKGTGTFLLGIAGLFTLQKVIQRRRRRRRRR-NH2; N-terminus assumed) | 94.4% | 91.3% | 36.7% | 7% | 75.7% | 49.1% | 20.2% | 17.6% | 80% | 69.7% | 52.6% | 44.3% | 86.2% | 75.2% | 41.2% | 16.4% | 101.1% | 80.9% | 45.2% |  | Cell survival rate (%) ([5]; peptide 100 μM): 42.6%; Cell survival rate (%) ([6]; peptide 12.5 μM): 88.3%; Cell survival rate (%) ([6]; peptide 25 μM): 82.1%; Cell survival rate (%) ([6]; peptide 50 μM): 56.1%; Cell survival rate (%) ([6]; peptide 100 μM): 42.7%
5 | CC[C@H](C)[C@H](NC(=O)[C@H](C)NC(=O)[C@H](CO)NC(=O)[C@@H](NC(=O)[C@H](CC(C)C)NC(=O)[C@H](Cc1ccccc1)NC(=O)[C@H](CO)NC(=O)[C@H](Cc1c[nH]c2ccccc12)NC(=O)[C@H](CCC(N)=O)NC(=O)[C@@H](NC(=O)[C@@H]1CCCN1)C(C)C)C(C)C)C(=O)N[C@@H](C)C(=O)NCC(=O)N[C@@H](CO)C(=O)N[C@H](C(=O)N[C@@H](C)C(=O)N[C@@H](CO)C(=O)N[C@@H](Cc1ccc(O)cc1)C(=O)N[C@@H](CCCNC(=N)N)C(=O)N[C@H](C(=O)N[C@@H](Cc1c[nH]c2ccccc12)C(=O)N[C@@H](CCCNC(=N)N)C(=O)N[C@@H](CCCNC(=N)N)C(=O)N[C@@H](CCC(N)=O)C(=O)N[C@@H](C)C(=O)N[C@@H](CCCNC(=N)N)C(=O)N[C@@H](Cc1ccccc1)C(=O)N[C@@H](CCCCN)C(N)=O)C(C)C)C(C)C [Sample 11] (H-PVQWSFLVSAIAGSVASYRVWRRQARFK-NH2; N-terminus assumed) |  |  |  |  |  |  |  |  |  |  | 77% |  |  |  |  |  |  |  |  | 101% | 
